Measurements as given in ChEMBL document CHEMBL4823255, “Discovery of novel potent migrastatic Thiazolo[5,4-b]pyridines targeting Lysyl-tRNA synthetase (KRS) for treatment of Cancer metastasis” (Eur J Med Chem, 2021).
Values belong to the molecule of their own block, whether it stands above or below them. The source made the active and inactive calls. The rule behind the calls is not given here.

Tests used:
MDA-MB-231 [1] = assay: Antimigratory activity against tetracycline-induced KRS T52D mutant overexpressing human MDA-MB-231 cells assessed as inhibition of cell migration at 3 uM measured after 4 hrs by flourescence plate reader method; type: functional
Lysine--tRNA ligase [2] = target: T1, Lysine--tRNA ligase (Homo sapiens, UniProt Q15046); assay: Binding affinity to human N-terminal His6-tagged 15N-labelled KRS (1 to 207 residues) expressed in Escherichia coli BL21(DE3) at 0.4 mM by 1H-15N TROSY NMR analysis
Target sequence in this assay (Q15046 2-597 limits assumed): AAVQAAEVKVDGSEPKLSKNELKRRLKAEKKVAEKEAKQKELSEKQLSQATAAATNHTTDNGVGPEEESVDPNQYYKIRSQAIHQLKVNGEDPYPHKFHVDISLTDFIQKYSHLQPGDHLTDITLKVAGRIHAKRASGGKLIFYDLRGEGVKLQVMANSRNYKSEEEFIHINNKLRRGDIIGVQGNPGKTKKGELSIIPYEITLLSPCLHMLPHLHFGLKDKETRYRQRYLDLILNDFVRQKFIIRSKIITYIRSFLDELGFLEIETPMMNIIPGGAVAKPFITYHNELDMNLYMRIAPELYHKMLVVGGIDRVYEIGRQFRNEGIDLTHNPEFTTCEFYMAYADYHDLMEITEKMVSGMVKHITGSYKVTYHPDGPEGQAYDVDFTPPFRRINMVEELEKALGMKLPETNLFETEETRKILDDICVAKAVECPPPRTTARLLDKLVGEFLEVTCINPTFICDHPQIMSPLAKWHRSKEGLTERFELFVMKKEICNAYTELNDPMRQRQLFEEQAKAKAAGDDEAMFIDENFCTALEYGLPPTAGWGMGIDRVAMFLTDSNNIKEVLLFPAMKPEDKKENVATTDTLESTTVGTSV

Lysine--tRNA ligase [3] = target: T1, Lysine--tRNA ligase; assay: Binding affinity to human N-terminal His6-tagged 15N-labelled KRS (1 to 207 residues) expressed in Escherichia coli BL21(DE3) measured by flourescence based binding titration assay
Target sequence in this assay (Q15046 whole entry, the tested form may be a part): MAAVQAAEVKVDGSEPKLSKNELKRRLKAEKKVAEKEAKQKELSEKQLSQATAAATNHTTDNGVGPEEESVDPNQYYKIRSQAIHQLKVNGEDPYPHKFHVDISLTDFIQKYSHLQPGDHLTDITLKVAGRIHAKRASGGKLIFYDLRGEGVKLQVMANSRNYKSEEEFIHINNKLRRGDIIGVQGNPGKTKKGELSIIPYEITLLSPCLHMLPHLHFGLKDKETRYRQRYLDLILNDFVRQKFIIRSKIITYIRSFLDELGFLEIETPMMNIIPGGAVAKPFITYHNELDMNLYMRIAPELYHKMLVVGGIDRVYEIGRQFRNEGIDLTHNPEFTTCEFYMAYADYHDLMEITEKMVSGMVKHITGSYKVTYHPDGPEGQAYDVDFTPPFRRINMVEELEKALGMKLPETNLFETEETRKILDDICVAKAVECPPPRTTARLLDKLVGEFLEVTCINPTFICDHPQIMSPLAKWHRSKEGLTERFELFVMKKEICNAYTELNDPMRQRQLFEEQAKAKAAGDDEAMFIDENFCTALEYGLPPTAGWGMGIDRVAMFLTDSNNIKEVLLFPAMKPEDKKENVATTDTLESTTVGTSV

NCI-H226 = assay: Antimigratory activity against human NCI-H226 cells assessed as inhibition of cell migration measured after 12 hrs by Transwell assay; type: functional, cell-based; details: NCI-H226, 12 h
CYP1A2 = target: T2, CYP1A2 (Homo sapiens, UniProt P05177); assay: Inhibition of CYP1A2 (unknown origin) assessed as enzyme residual activity at 10 uM; type: ADME; details: read-out: Activity
T2 sequence (P05177 whole entry): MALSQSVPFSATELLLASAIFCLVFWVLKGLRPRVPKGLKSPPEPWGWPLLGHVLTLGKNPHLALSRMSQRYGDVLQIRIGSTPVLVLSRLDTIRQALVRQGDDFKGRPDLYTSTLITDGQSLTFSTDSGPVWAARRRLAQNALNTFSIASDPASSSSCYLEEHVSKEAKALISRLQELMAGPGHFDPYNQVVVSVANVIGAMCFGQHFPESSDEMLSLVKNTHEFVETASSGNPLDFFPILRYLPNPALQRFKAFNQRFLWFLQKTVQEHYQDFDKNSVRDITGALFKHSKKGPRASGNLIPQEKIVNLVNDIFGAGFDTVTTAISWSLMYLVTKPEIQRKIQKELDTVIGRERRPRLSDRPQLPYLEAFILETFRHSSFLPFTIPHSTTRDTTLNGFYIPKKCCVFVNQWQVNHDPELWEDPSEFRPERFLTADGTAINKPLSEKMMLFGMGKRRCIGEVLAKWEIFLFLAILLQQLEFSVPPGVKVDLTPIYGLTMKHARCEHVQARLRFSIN

CYP2C19 = CYP2C19 (Homo sapiens, UniProt P33261); assay: Inhibition of CYP2C19 (unknown origin) assessed as enzyme residual activity at 10 uM; type: ADME; details: read-out: Activity
CYP3A4 = CYP3A4 (Homo sapiens, UniProt P08684); assay: Inhibition of CYP3A4 (unknown origin) assessed as enzyme residual activity at 10 uM; type: ADME; details: read-out: Activity
CYP2C9 = CYP2C9 (Homo sapiens, UniProt P11712); assay: Inhibition of CYP2C9 (unknown origin) assessed as enzyme residual activity at 10 uM; type: ADME; details: read-out: Activity
[4] = Permeability of the compound at 50 uM measured after 4 hrs by PAMPA assay; type: ADME; details: read-out: permeability
[5] = Toxicity in Balb/cAnCr mouse xenografted with mouse 4T1 cells assessed as change in body weight at 100 mg/kg, po administered for 16 days; type: organism-based; details: in vivo, 384 h, time 16 day
[6] = Clearance in mouse at 5 mg/kg, iv measured after 24 hrs; type: ADME, organism-based; details: in vivo
[7] = Half life in mouse at 5 mg/kg, po measured after 24 hrs; type: ADME, organism-based; details: in vivo
[8] = Metabolic stability in rat liver microsomes assessed as parent compound remaining measured after 30 mins; type: ADME, Microsome; details: read-out: Stabilty
4T1 = assay: Anti-metastasis activity in mouse 4T1 cells xenografted in BALB/cAnCr mouse at 100 mg/kg, po administered for 16 days; type: functional, organism-based; details: time 16.0 day
[9] = Volume of distribution at steady state in mouse at 5 mg/kg, iv measured after 24 hrs; type: ADME, organism-based; details: in vivo, read-out: Vdss
[10] = AUC(infinity) in mouse at 5 mg/kg, po measured after 24 hrs; type: ADME, organism-based; set-up: route oral, dose 5 mg/kg, time 24 hrs; details: in vivo
[11] = Metabolic stability in human liver microsomes assessed as parent compound remaining measured after 30 mins; type: ADME, Microsome; details: read-out: Stabilty
[12] = Cmax in mouse at 5 mg/kg, po measured after 24 hrs; type: ADME, organism-based; set-up: route oral, dose 5 mg/kg, time 24 hrs; details: in vivo
[13] = AUC(t) in mouse at 5 mg/kg, iv measured after 24 hrs; type: ADME, organism-based; set-up: route intravenous, dose 5 mg/kg, time 24 hrs; details: in vivo
[14] = Half life in mouse at 5 mg/kg, iv measured after 24 hrs; type: ADME, organism-based; details: in vivo
[15] = Metabolic stability in dog liver microsomes assessed as parent compound remaining measured after 30 mins; type: ADME, Canis lupus familiaris, Microsome; details: read-out: Stabilty
MDA-MB-231 [16] = assay: Antimigratory activity against tetracycline-induced KRS T52D mutant overexpressing human MDA-MB-231 cells assessed as inhibition of cell migration measured after 4 hrs by flourescence plate reader method; type: functional, cell-based; details: MDA-MB-231, 4 h
[17] = Metabolic stability in mouse liver microsomes assessed as parent compound remaining measured after 30 mins; type: ADME, Microsome; details: read-out: Stabilty
CYP2D6 = CYP2D6 (Homo sapiens, UniProt P10635); assay: Inhibition of CYP2D6 (unknown origin) assessed as enzyme residual activity at 10 uM; type: ADME; details: read-out: Activity
[18] = AUC(t) in mouse at 5 mg/kg, po measured after 24 hrs; type: ADME, organism-based; set-up: route oral, time 24 hrs, dose 5 mg/kg; details: in vivo
[19] = AUC(infinity) in mouse at 5 mg/kg, iv measured after 24 hrs; type: ADME, organism-based; set-up: route intravenous, time 24 hrs, dose 5 mg/kg; details: in vivo
[20] = Tmax in mouse at 5 mg/kg, po measured after 24 hrs; type: ADME, organism-based; details: in vivo
[21] = Oral bioavailability in mouse at 5 mg/kg measured after 24 hrs; type: ADME, organism-based; details: in vivo

Chain of CYP2C9 (P11712 whole entry): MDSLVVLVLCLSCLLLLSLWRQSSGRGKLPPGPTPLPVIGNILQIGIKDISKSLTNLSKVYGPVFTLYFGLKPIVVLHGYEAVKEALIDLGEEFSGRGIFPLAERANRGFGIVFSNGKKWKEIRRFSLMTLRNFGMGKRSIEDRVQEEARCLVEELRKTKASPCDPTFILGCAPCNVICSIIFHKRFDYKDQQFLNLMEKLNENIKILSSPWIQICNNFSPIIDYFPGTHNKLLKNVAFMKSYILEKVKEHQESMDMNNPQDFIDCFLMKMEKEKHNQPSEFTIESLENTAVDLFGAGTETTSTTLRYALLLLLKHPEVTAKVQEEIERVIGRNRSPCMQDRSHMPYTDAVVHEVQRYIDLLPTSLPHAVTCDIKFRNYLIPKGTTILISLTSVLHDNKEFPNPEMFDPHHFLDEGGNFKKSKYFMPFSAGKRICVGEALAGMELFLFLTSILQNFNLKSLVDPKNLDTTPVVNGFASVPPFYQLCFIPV
Chain of CYP3A4 (P08684 whole entry): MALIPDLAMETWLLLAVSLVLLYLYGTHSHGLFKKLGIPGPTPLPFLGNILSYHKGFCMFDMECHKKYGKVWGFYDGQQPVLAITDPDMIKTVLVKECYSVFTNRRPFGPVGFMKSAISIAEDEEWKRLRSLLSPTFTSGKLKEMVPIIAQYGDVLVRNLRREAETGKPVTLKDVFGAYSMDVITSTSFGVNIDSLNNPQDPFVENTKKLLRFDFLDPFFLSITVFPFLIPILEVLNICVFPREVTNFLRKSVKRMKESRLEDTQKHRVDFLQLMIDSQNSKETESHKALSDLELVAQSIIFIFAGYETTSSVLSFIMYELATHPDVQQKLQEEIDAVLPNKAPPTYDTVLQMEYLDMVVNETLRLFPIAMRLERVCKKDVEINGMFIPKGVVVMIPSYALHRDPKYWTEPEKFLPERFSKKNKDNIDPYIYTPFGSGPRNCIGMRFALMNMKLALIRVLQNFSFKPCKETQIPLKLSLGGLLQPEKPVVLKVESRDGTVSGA
Chain of CYP2C19 (P33261 whole entry): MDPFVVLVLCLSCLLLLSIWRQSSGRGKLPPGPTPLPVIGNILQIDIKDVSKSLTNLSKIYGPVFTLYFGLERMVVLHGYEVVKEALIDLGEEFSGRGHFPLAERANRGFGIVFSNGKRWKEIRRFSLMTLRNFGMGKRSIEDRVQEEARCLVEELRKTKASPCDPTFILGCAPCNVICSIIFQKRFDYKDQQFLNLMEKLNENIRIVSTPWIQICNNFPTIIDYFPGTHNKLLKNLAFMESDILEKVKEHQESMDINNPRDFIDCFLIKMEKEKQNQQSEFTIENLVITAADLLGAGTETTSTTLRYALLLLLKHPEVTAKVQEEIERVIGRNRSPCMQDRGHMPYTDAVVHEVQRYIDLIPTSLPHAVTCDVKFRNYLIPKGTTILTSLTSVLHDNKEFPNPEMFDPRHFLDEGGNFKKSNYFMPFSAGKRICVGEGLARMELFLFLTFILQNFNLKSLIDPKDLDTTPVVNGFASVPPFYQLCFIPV
Chain of CYP2D6 (P10635 whole entry): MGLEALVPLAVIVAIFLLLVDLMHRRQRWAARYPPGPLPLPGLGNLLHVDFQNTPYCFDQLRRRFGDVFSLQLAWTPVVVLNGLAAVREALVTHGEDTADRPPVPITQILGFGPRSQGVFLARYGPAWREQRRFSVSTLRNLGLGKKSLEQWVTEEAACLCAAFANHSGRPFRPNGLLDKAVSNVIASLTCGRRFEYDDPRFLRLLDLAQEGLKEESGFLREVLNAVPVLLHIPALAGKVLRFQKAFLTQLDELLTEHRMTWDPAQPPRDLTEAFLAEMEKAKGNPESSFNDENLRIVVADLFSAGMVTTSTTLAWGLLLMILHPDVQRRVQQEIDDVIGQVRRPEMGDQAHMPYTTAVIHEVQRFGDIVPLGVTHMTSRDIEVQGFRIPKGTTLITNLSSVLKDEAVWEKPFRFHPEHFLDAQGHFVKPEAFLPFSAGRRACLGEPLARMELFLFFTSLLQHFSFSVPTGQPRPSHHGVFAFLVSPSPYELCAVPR

SMILES: COc1ccc(CCN(Cc2ccc(C(=O)O)cc2)c2nc3ncccc3s2)cc1
- Activity (MDA-MB-231 [1]): inactive

SMILES: COc1ccc(CCN(Cc2ccc(C(=O)O)cc2)c2nc3ccc[n+]([O-])c3s2)cc1
- Activity (MDA-MB-231 [1]): inactive

SMILES: COc1ccc(CCN(Cc2ccc(C(=O)O)cc2)c2nc3cc(F)c(F)c(F)c3s2)cc1
- inhibition at 3 µM (MDA-MB-231 [1]): 28%

- Activity (Lysine--tRNA ligase [2]): Active
- Kd (Lysine--tRNA ligase [3]): 49.2 µM
- EC50 (NCI-H226): 8.5 µM
SMILES: CCC(C(=O)O)n1/c(=N/C(=O)c2cccc(C(F)(F)F)c2)sc2cc(F)c(F)cc21 (centres undefined)

SMILES: COc1ccc(CCN(Cc2ccc(C(=O)O)cc2)c2nc3cnccc3s2)cc1
- Activity (MDA-MB-231 [1]): inactive

SMILES: COc1ccc(CCN(Cc2ccc(C(=O)O)cc2)c2nc3cc([N+](=O)[O-])ccc3o2)cc1
- Activity (MDA-MB-231 [1]): Active

SMILES: COc1ccc(CCN(Cc2ccc(C(=O)O)cc2)c2nc3cc(F)cc(F)c3[nH]2)cc1
- Activity (MDA-MB-231 [1]): inactive

SMILES: COc1ccc(CCN(Cc2ccc(C(=O)O)cc2)c2nc3cc(Cl)cnc3s2)cc1
- Activity (MDA-MB-231 [1]): inactive

SMILES: CC(=O)N1CCN(c2ccc(OCC3COC(Cn4ccnc4)(c4ccc(Cl)cc4Cl)O3)cc2)CC1 (centres undefined) [KETOCONAZOLE]
- activity at 10 µM (CYP1A2): > 100%
- activity at 10 µM (CYP2C19): > 100%
- activity at 10 µM (CYP3A4): 31.8%
- activity at 10 µM (CYP2C9): > 100%

SMILES: COc1ccc(CCN(Cc2ccc(C(=O)O)cc2)c2nc3ccc(CO)cc3s2)cc1
- Activity (MDA-MB-231 [1]): inactive

SMILES: COc1ccc(CCN(Cc2ccc(C(=O)O)cc2)c2nc3ccc(C(=O)O)cc3s2)cc1
- Activity (MDA-MB-231 [1]): inactive

SMILES: Cc1cc(=O)n(-c2ccccc2)n1C [ANTIPYRINE]
- Papp at 4 h, 50 µM [4]: 1.94 ×10⁻⁶ cm/s

SMILES: COc1ccc(CCN(Cc2ccc(C(=O)O)cc2)c2nc3cc(NC(=O)Cc4ccc(OC)cc4)ccc3o2)cc1
- Activity (MDA-MB-231 [1]): Active

SMILES: COc1ccc(CCN(Cc2ccc(C(=O)O)cc2)c2nc3cc(NC(=O)c4ccc(N5CCN(C)CC5)cc4)ccc3o2)cc1
- Activity (MDA-MB-231 [1]): inactive

SMILES: COc1ccc(CCN(Cc2ccc(C(=O)O)cc2)c2nc3ccccc3o2)cc1
- Activity (MDA-MB-231 [1]): Active

SMILES: COc1ccc(CCN(Cc2ccc(C(=O)O)cc2)c2nc3cncnc3s2)cc1
- Activity (MDA-MB-231 [1]): inactive

SMILES: COc1ccc(CCN(Cc2ccc(C(=O)O)cc2)c2nc3cccnc3o2)cc1
- Activity (MDA-MB-231 [1]): Active

- Activity (Lysine--tRNA ligase [2]): Active
- Papp at 4 h, 50 µM [4]: 22.2 ×10⁻⁶ cm/s
- Kd (Lysine--tRNA ligase [3]): 5.75 µM
- clearance [6]: 392 mL/min/kg
- half-life [7]: 93.6 min
- remaining at 0.5 h [8]: 73%
- activity at 10 µM (CYP1A2): 91.1%
- Vd [9]: 149 L/kg
- AUC(0-inf) [10]: 192 ng·h/mL
- remaining at 0.5 h [11]: 62.8%
- Cmax [12]: 40 ng/mL
- activity at 10 µM (CYP2C19): 92.2%
- AUC(0-t) at 24 h [13]: 191 ng·h/mL
- half-life [14]: 363 min
- remaining at 0.5 h [15]: 79.5%
- EC50 (MDA-MB-231 [16]): 81 nM
- remaining at 0.5 h [17]: 65.8%
- activity at 10 µM (CYP2D6): 97.9%
- AUC(0-t) at 24 h [18]: 168 ng·h/mL
- activity at 10 µM (CYP3A4): 98.4%
- activity at 10 µM (CYP2C9): 74.6%
- AUC(0-inf) [19]: 216 ng·h/mL
- Tmax [20]: 4.17 h
- bioavailability [21]: 87.9%
SMILES: COc1ccc(CCN(Cc2ccc(C(=O)O)cc2)c2nc3cccnc3s2)cc1
- Activity [5]: Non-Toxic
- Activity (4T1): Active
- inhibition at 3 µM (MDA-MB-231 [1]): 70%
